Data published in the NIST ThermoML archive (doi:10.1021/je3009073).

Assay: xn = mol fraction of the nth substance listed
Conditions: 101 kPa, Liquid; for viscosity: Capillary tube (Ostwald / Ubbelohde) method; for mass density: Pycnometric method

CC(O)C(=O)[O-].CN(C)C(N)=[N+](C)C [1,1,3,3-tetramethylguanidinium lactate] + O
Conditions	mass density [kg/m3]	viscosity [mPa·s]
303.15 K, x2 = 0	1123.5	13684
303.15 K, x2 = 0.1001	1124	7665.3
303.15 K, x2 = 0.2165	1124.3	3594.1
303.15 K, x2 = 0.3182	1124.7	1926
303.15 K, x2 = 0.409	1124.9	1128.2
303.15 K, x2 = 0.5036	1124.5	554.56
303.15 K, x2 = 0.6044	1122.8	253.27
303.15 K, x2 = 0.7034	1119.9	104.72
303.15 K, x2 = 0.8113	1111.2	32.59
303.15 K, x2 = 0.9017	1088.3	8.68
303.15 K, x2 = 0.95	1058.1	3.32
308.15 K, x2 = 0	1120.9	7295.9
308.15 K, x2 = 0.1001	1121.2	4186.3
308.15 K, x2 = 0.2165	1121.5	2150.1
308.15 K, x2 = 0.3182	1121.9	1141.9
308.15 K, x2 = 0.409	1122.1	698
308.15 K, x2 = 0.5036	1121.3	352.18
308.15 K, x2 = 0.6044	1119.7	175.49
308.15 K, x2 = 0.7034	1116.7	74.98
308.15 K, x2 = 0.8113	1107.9	25.05
308.15 K, x2 = 0.9017	1084.9	7.1
308.15 K, x2 = 0.95	1055	2.83
313.15 K, x2 = 0	1117.6	3961.9
313.15 K, x2 = 0.1001	1117.9	2412.1
313.15 K, x2 = 0.2165	1118.1	1263.3
313.15 K, x2 = 0.3182	1118.4	718.88
313.15 K, x2 = 0.409	1118.5	429.45
313.15 K, x2 = 0.5036	1117.6	235.35
313.15 K, x2 = 0.6044	1116.1	122.11
313.15 K, x2 = 0.7034	1113.1	55.39
313.15 K, x2 = 0.8113	1104.2	19.16
313.15 K, x2 = 0.9017	1081.5	5.87
313.15 K, x2 = 0.95	1051.5	2.41
318.15 K, x2 = 0	1114.3	2264.3
318.15 K, x2 = 0.1001	1114.5	1261.7
318.15 K, x2 = 0.2165	1114.6	797.81
318.15 K, x2 = 0.3182	1114.9	458.45
318.15 K, x2 = 0.409	1114.9	289.6
318.15 K, x2 = 0.5036	1114.1	167.33
318.15 K, x2 = 0.6044	1112.6	89.04
318.15 K, x2 = 0.7034	1109.6	42
318.15 K, x2 = 0.8113	1100.6	15.25
318.15 K, x2 = 0.9017	1078.1	4.94
318.15 K, x2 = 0.95	1048.4	2.1
323.15 K, x2 = 0	1111.6	1365.5
323.15 K, x2 = 0.1001	1111.7	890.99
323.15 K, x2 = 0.2165	1111.7	502.11
323.15 K, x2 = 0.3182	1112	310.53
323.15 K, x2 = 0.409	1111.8	201.98
323.15 K, x2 = 0.5036	1111.1	120.29
323.15 K, x2 = 0.6044	1109.2	64.59
323.15 K, x2 = 0.7034	1106.7	32.53
323.15 K, x2 = 0.8113	1097.1	12.34
323.15 K, x2 = 0.9017	1074.5	4.2
323.15 K, x2 = 0.95	1045.6	1.86
328.15 K, x2 = 0	1108.1	867.05
328.15 K, x2 = 0.1001	1108.1	579.99
328.15 K, x2 = 0.2165	1108.2	341
328.15 K, x2 = 0.3182	1108.4	218.6
328.15 K, x2 = 0.409	1108.2	146.62
328.15 K, x2 = 0.5036	1107.4	88.71
328.15 K, x2 = 0.6044	1105.6	49.38
328.15 K, x2 = 0.7034	1102.9	25.68
328.15 K, x2 = 0.8113	1093.2	10.19
328.15 K, x2 = 0.9017	1070.6	3.62
328.15 K, x2 = 0.95	1042.5	1.65
